Results: publication PMC12459184, “Design, synthesis, and bioevaluation of pyrazole-containing tubulin polymerisation inhibitors based on conformational constraint strategy” (Journal of Enzyme Inhibition and Medicinal Chemistry, 2025)
Where two headings read alike, the source gives them in different places.

Tests used:
SGC-7901 cells = assay: MTT antiproliferative assay, SGC-7901; type: cell-based; settings: Homo sapiens, read-out: IC50 (μM) ± SD SGC-7901
Procedure: (§1) The in vitro antiproliferative activities of all target compounds 4a−k, 5a−h, and 6a−h were assayed by MTT method using human gastric cancer cell line SGC-7901 and human breast cancer cell line MCF-7.
(§2) All cell lines tested in this study were purchased from the American Type Culture Collection (ATCC, Manassas, VA). SGC-7901 (human gastric adenocarcinoma), HCT-116 (human colon carcinoma), and A549 (human pulmonary carcinoma) cells were cultured in RPMI-1640 medium containing 10% foetal serum (FBS) and 1% penicillin-streptomycin solution (100×). MCF-7 (human breast carcinoma) cells were cultured in DMEM medium containing 10% foetal serum (FBS) and 1% penicillin-streptomycin solution (100×). PC-3 (human prostate carcinoma) cells were cultured in Ham’s F-12K medium containing 10% foetal serum (FBS) and 1% penicillin-streptomycin solution (100×). All cells were cultured at 37 °C in a humidified atmosphere containing 5% CO2.
(§3) Cells grown in logarithmic phase were harvested and seeded onto 96-well cell plates at a density of 4 ∼ 5 × 10^3 cells per well (various from cell type) and were cultured for 24 h. Different concentrations of compounds were added into the wells, and the cells were cultured for another 72 h. The medium was removed, then 20 μL of MTT (5 mg/mL in PBS) was added to each well and the cells were incubated for 4 h. 150 μL of DMSO was added to each well to dissolve the formazan, and the absorbance at 490 nm of each well was measured by a microplate reader. IC50 values were calculated by SPSS software.

MCF-7 cells = assay: MTT antiproliferative assay, MCF-7; type: cell-based; settings: Homo sapiens, read-out: IC50 (μM) ± SD MCF-7
Procedure: as §1, §2, §3

[1] = system: microtubule network in PC-3 cells; assay: Immunofluorescence assay of microtubule network; type: cell-based, human; settings: 20 nM, 24 h
Procedure: To evaluate the effects of 4k and 5a on intracellular microtubule, immunofluorescence assay was carried out to observe the changes of microtubule network in cell.
PC-3 cells in logarithmic phase were harvested and seeded onto 12-well cell plates with round coverslip on the bottom of each well at a density of 3 × 10^4 cells per well, and were cultured for 24 h. […] The medium was removed, and cells were washed with PBS twice, fixed with 4% formaldehyde in PBS for 30 min, then the solution was removed. Cells were washed with PBS twice, permeabilized with 0.2% (v/v) Triton X-100 in PBS for 30 min, then the solution was removed. Cells were washed with PBS twice, blocking the cells in 5% bovine serum albumin (BSA) for 30 min. Then BSA was removed, and cells were incubated with the primary α-tubulin antibody (Santa Cruz, CA) containing 2% BSA (v/v, 1: 100) overnight at 4 °C.
The following steps were operated in dark environment. The antibody was removed, then cells were washed with PBST twice and were added FITC-conjugated anti-mouse secondary antibody diluted (1:100) with 2% BSA in PBS and incubated at room temperature for 4 h. The cells were then washed with PBST twice, stained with 4′,6-diamidino-2-phenylindole (DAPI) for 30 min at room temperature, and washed with PBS twice. The round coverslips at the bottom of wells were taken out, and the images were photographed by a confocal microscope.

tubulin = assay: In vitro tubulin polymerisation assay; type: biochemical; settings: 3 μM
Procedure: To investigate the effect of compounds 4k and 5a on microtubule system, their tubulin polymerisation inhibition activities were evaluated using in vitro tubulin polymerisation assay.
The BK001 kit used in this test was purchased from Cytoskeleton Inc. (Denver, CO, USA). […] Then the mixtures were transferred to 37 °C and tubulin assembly was monitored (excitation wavelength: 360 nm; emission wavelength: 420 nm) at 1 min intervals for 90 min by a microplate reader.

[2] = SGC-7901, 72 h drug exposure, MTT assay
[3] = MCF7, 72 h drug exposure, MTT assay

Compound | IC50 (SGC-7901 cells; [2]) | IC50 (MCF-7 cells; [3]) | also measured
COc1cc(C(=O)c2nn(-c3ccccc3)cc2N)cc(OC)c1OC [4a, (4-Amino-1-phenyl-1H-pyrazol-3-yl)(3,4,5-trimethoxyphenyl)methanone] | 0.04 ± 0.003 µM | 0.034 ± 0.005 µM | –
COc1cc(C(=O)c2nn(-c3cccc(C)c3)cc2N)cc(OC)c1OC [4b, (4-Amino-1–(3-methylphenyl)-1H-pyrazol-3-yl)(3,4,5-trimethoxyphenyl)methanone] | 0.095 ± 0.011 µM | 0.224 ± 0.06 µM | –
COc1cc(C(=O)c2nn(-c3ccc(C)cc3)cc2N)cc(OC)c1OC [4c, (4-Amino-1–(4-methylphenyl)-1H-pyrazol-3-yl)(3,4,5-trimethoxyphenyl)methanone] | 0.234 ± 0.033 µM | 3.9 ± 0.205 µM | –
COc1cc(C(=O)c2nn(-c3ccccc3F)cc2N)cc(OC)c1OC [4d, (4-Amino-1–(2-fluorophenyl)-1H-pyrazol-3-yl)(3,4,5-trimethoxyphenyl)methanone] | 0.086 ± 0.004 µM | 0.404 ± 0.036 µM | –
COc1cc(C(=O)c2nn(-c3cccc(F)c3)cc2N)cc(OC)c1OC [4e, (4-Amino-1–(3-fluorophenyl)-1H-pyrazol-3-yl)(3,4,5-trimethoxyphenyl)methanone] | 0.439 ± 0.037 µM | 0.35 ± 0.023 µM | –
COc1cc(C(=O)c2nn(-c3ccc(F)cc3)cc2N)cc(OC)c1OC [4f, (4-Amino-1–(4-fluorophenyl)-1H-pyrazol-3-yl)(3,4,5-trimethoxyphenyl)methanone] | 0.092 ± 0.005 µM | 0.162 ± 0.01 µM | –
COc1ccc(-n2cc(N)c(C(=O)c3cc(OC)c(OC)c(OC)c3)n2)cc1 [4g, (4-Amino-1–(4-methoxyphenyl)-1H-pyrazol-3-yl)(3,4,5-trimethoxyphenyl)methanone] | 0.022 ± 0.002 µM | 0.068 ± 0.012 µM | –
COc1cc(C(=O)c2nn(-c3ccc(Cl)cc3)cc2N)cc(OC)c1OC [4h, (4-Amino-1–(4-chlorophenyl)-1H-pyrazol-3-yl)(3,4,5-trimethoxyphenyl)methanone] | 0.318 ± 0.02 µM | 0.098 ± 0.007 µM | –
COc1cc(C(=O)c2nn(-c3ccccc3C)cc2N)cc(OC)c1OC [4i, (4-Amino-1–(2-methylphenyl)-1H-pyrazol-3-yl)(3,4,5-trimethoxyphenyl)methanone] | 0.166 ± 0.004 µM | 2.2 ± 0.196 µM | –
COc1cc(C(=O)c2nn(-c3ccc([N+](=O)[O-])cc3)cc2N)cc(OC)c1OC [4j, (4-Amino-1–(4-nitrophenyl)-1H-pyrazol-3-yl)(3,4,5-trimethoxyphenyl)methanone] | 0.04 ± 0.006 µM | 0.391 ± 0.083 µM | –
COc1cc(C2=NCC(=O)Nc3cn(-c4cccc(C)c4)nc32)cc(OC)c1OC [5b, 2–(3-Methylphenyl)-8–(3,4,5-trimethoxyphenyl)-2,6-dihydropyrazolo[4,3-e][1,4]diazepin-5(4H)-one] | 0.424 ± 0.076 µM | 0.665 ± 0.052 µM | –
COc1cc(C2=NCC(=O)Nc3cn(-c4ccc(C)cc4)nc32)cc(OC)c1OC [5c, 2–(4-Methylphenyl)-8–(3,4,5-trimethoxyphenyl)-2,6-dihydropyrazolo[4,3-e][1,4]diazepin-5(4H)-one] | 0.117 ± 0.01 µM | 1.38 ± 0.433 µM | –
COc1cc(C2=NCC(=O)Nc3cn(-c4ccccc4F)nc32)cc(OC)c1OC [5d, 2–(2-Fluorophenyl)-8–(3,4,5-trimethoxyphenyl)-2,6-dihydropyrazolo[4,3-e][1,4]diazepin-5(4H)-one] | 0.053 ± 0.008 µM | 1.08 ± 0.381 µM | –
COc1cc(C2=NCC(=O)Nc3cn(-c4cccc(F)c4)nc32)cc(OC)c1OC [5e, 2–(3-Fluorophenyl)-8–(3,4,5-trimethoxyphenyl)-2,6-dihydropyrazolo[4,3-e][1,4]diazepin-5(4H)-one] | 0.949 ± 0.017 µM | 3.01 ± 0.534 µM | –
COc1cc(C2=NCC(=O)Nc3cn(-c4ccc(F)cc4)nc32)cc(OC)c1OC [5f, 2–(4-Fluorophenyl)-8–(3,4,5-trimethoxyphenyl)-2,6-dihydropyrazolo[4,3-e][1,4]diazepin-5(4H)-one] | 0.137 ± 0.025 µM | 1.86 ± 0.438 µM | –
COc1ccc(-n2cc3c(n2)C(c2cc(OC)c(OC)c(OC)c2)=NCC(=O)N3)cc1 [5g, 2–(4-Methoxyphenyl)-8–(3,4,5-trimethoxyphenyl)-2,6-dihydropyrazolo[4,3-e][1,4]diazepin-5(4H)-one] | – | – | IC50 (SGC-7901 cells; SGC-7901, 72 h): 0.841 ± 0.024 µM; IC50 (MCF-7 cells; MCF7, 72 h): 2.86 ± 0.435 µM
COc1cc(C2=NCC(=O)Nc3cn(-c4ccc(Cl)cc4)nc32)cc(OC)c1OC [5h, 2–(4-Chlorophenyl)-8–(3,4,5-trimethoxyphenyl)-2,6-dihydropyrazolo[4,3-e][1,4]diazepin-5(4H)-one] | 0.772 ± 0.004 µM | 0.857 ± 0.09 µM | –
COc1cc(C2=NNC(=S)Nc3cn(-c4ccccc4)nc32)cc(OC)c1OC [6a, 2-Phenyl-8–(3,4,5-trimethoxyphenyl)-2,6-dihydropyrazolo[4,3-e][1,2,4]triazepine-5(4H)-thione] | 2.74 ± 0.041 µM | 2.98 ± 0.462 µM | –
COc1cc(C2=NNC(=S)Nc3cn(-c4cccc(C)c4)nc32)cc(OC)c1OC [6b, 2–(3-Methylphenyl)-8–(3,4,5-trimethoxyphenyl)-2,6-dihydropyrazolo[4,3-e][1,2,4]triazepine-5(4H)-thione] | 0.366 ± 0.065 µM | 0.749 ± 0.181 µM | –
COc1cc(C2=NNC(=S)Nc3cn(-c4ccc(C)cc4)nc32)cc(OC)c1OC [6c, 2–(4-Methylphenyl)-8–(3,4,5-trimethoxyphenyl)-2,6-dihydropyrazolo[4,3-e][1,2,4]triazepine-5(4H)-thione] | 0.151 ± 0.024 µM | 0.123 ± 0.02 µM | –
COc1cc(C2=NNC(=S)Nc3cn(-c4ccccc4F)nc32)cc(OC)c1OC [6d, 2–(2-Fluorophenyl)-8–(3,4,5-trimethoxyphenyl)-2,6-dihydropyrazolo[4,3-e][1,2,4]triazepine-5(4H)-thione] | 0.087 ± 0.008 µM | 0.398 ± 0.079 µM | –
COc1cc(C2=NNC(=S)Nc3cn(-c4cccc(F)c4)nc32)cc(OC)c1OC [6e, 2–(3-Fluorophenyl)-8–(3,4,5-trimethoxyphenyl)-2,6-dihydropyrazolo[4,3-e][1,2,4]triazepine-5(4H)-thione] | 5.12 ± 0.099 µM | 6.9 ± 0.815 µM | –
COc1cc(C2=NNC(=S)Nc3cn(-c4ccc(F)cc4)nc32)cc(OC)c1OC [6f, 2–(4-Fluorophenyl)-8–(3,4,5-trimethoxyphenyl)-2,6-dihydropyrazolo[4,3-e][1,2,4]triazepine-5(4H)-thione] | 10 ± 0.078 µM | 8.42 ± 0.954 µM | –
COc1ccc(-n2cc3c(n2)C(c2cc(OC)c(OC)c(OC)c2)=NNC(=S)N3)cc1 [6g, 2–(4-Methoxyphenyl)-8–(3,4,5-trimethoxyphenyl)-2,6-dihydropyrazolo[4,3-e][1,2,4]triazepine-5(4H)-thione] | 2.16 ± 0.098 µM | 1.57 ± 0.243 µM | –
COc1cc(C2=NNC(=S)Nc3cn(-c4ccc(Cl)cc4)nc32)cc(OC)c1OC [6h, 2–(4-Chlorophenyl)-8–(3,4,5-trimethoxyphenyl)-2,6-dihydropyrazolo[4,3-e][1,2,4]triazepine-5(4H)-thione] | 0.485 ± 0.03 µM | 0.662 ± 0.07 µM | –
COc1cc2c(c(OC)c1OC)-c1ccc(OC)c(=O)cc1[C@@H](NC(C)=O)CC2 [Colchicine, reference compound] | – | – | effect on microtubule network [1]: microtubule network was destroyed
CC(=O)O[C@H]1C(=O)[C@@]2(C)[C@H]([C@H](OC(=O)c3ccccc3)[C@]3(O)C[C@H](OC(=O)[C@H](O)[C@@H](NC(=O)c4ccccc4)c4ccccc4)C(C)=C1C3(C)C)[C@]1(OC(C)=O)CO[C@@H]1C[C@@H]2O [paclitaxel, reference compound] | – | – | effect on tubulin polymerisation (fluorescence intensity) (tubulin): enhanced microtubule polymerisation
